# Data as given in patent publication US5834493A, “Indole derivatives as 5-HT1A and/or 5-HT2 ligands” (priority 1993, dated 1998).
# Key:
# 5-HT1A receptors = biological target: T1, 5-HT1A receptors (Rattus norvegicus, UniProt P19327); assay: 5-HT1A receptor binding ([3H]-8-OH-DPAT displacement, rat hippocampus homogenate); design: species or system rat (male Sprague Dawley); conditions: [3H]-8-OH-DPAT 1.0-1.5 nM, 30° C., 15 min, pH 7.4, read-out: Affinity for 5-HT1A receptors, Ki
# T1 construct: The Hippocampi of these animals were homogeneized in 10 volumes of ice cold TRIS buffer; from tissue; host or cells: rat hippocampus (male Sprague Dawley), homogenate
# T1 sequence (P19327 1-422): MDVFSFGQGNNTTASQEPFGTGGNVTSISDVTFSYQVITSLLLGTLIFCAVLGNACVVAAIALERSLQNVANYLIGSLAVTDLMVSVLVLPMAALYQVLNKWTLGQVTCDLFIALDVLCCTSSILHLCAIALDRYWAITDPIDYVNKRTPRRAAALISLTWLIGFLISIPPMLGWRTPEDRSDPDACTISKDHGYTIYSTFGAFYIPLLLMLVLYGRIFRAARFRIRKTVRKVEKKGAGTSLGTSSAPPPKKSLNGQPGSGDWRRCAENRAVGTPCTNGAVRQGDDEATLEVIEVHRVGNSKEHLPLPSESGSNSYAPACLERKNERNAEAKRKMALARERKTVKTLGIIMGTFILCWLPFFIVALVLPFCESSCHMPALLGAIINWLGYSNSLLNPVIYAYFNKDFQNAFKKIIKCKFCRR
# Method: (§1) Receptor binding studies on 5-HT1A and 5-HT2 receptors were carried out to determine the affinity of the test compounds.
# Rats (male Sprague Dawley, 200-250 g) were used. The Hippocampi of these animals were homogeneized in 10 volumes of ice cold TRIS buffer (pH 7.4). The homogenate was diluted 1:400 (w:v) in the same buffer to have a final protein concentration of about 200 μg/mL, filtered and incubated at 37° C. for 10 min, before use.
# Displacement experiments were performed by incubating the homogenate (980 μL) in the presence of [^3 H]-8OH-DPAT (1.0-1.5 nM) (10 μL) and of different concentrations of the test compounds dissolved in the test buffer (10 μL), at 30° C. for 15 min (final volume: 1 mL).
# Non specific binding was determined in the presence of 100 μM 5-HT (10 μL). The separation of [3H]-8-OH-DPAT, free from that bound to the receptor, was carried out by the filtration technique (GF/B filters, Whatman). The radioactivity present was counted by liquid scintillation spectrometry.
# (§2) The affinity values (Ki) for the compounds were obtained by a non linear least squares regression analysis on the basis of a one binding site model. The values were corrected on the basis of the radioligand occupancy on the receptors according to the equation: Ki=IC50 /(1+[C]/KD),where [C] and KD represent the concentration and the dissociation constant, respectively, of the radioligand used ([^3 H]-8-OH-DPAT).
# 5-HT2 receptors = biological target: T2, 5-HT2 receptors (Rattus norvegicus, UniProt P14842); assay: 5-HT2 receptor binding ([3H]-Ketanserine displacement, rat cerebral cortex); design: species or system rat (male Sprague Dawley); conditions: [3H]-Ketanserine 0.5-1.0 nM, 37° C., 10 min, pH 7.4, read-out: Affinity for 5-HT2 receptors, Ki
# T2 construct: Cerebral cortices were homogenized in 10 volumes of ice cold 0.32M sucrose; from tissue; host or cells: rat cerebral cortex (male Sprague Dawley), membrane preparation
# T2 sequence (P14842 whole entry): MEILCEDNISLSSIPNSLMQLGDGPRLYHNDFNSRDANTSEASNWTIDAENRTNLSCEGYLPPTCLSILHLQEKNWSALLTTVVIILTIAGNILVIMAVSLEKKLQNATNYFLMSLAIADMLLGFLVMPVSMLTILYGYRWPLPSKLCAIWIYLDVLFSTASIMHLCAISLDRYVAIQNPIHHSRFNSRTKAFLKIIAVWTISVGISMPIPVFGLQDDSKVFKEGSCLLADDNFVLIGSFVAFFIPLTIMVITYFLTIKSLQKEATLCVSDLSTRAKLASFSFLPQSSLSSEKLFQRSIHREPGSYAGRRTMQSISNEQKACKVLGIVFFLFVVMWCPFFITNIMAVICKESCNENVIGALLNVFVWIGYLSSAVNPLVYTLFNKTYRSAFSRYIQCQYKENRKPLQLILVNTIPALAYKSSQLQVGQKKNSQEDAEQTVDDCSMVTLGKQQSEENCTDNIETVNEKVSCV
# Method: as §1
# Rats (male Sprague Dawley, 200-250 g) were used. Cerebral cortices were homogenized in 10 volumes of ice cold 0.32M sucrose. After the centrifugation of the homogenate (1,000×g for 10 min) the supernatant was then recentrifuged at 48,000×g for 15 min. The resulting pellet was resuspended in 10 volumes of 50 mM TRIS buffer (pH 7.4), incubated at 37° C. for 10 min and recentrifuged at 48,000×g for 15 min. The residue was then resuspended in 10 volumes of 50 mM TRIS buffer (pH 7.4).
# The tissue was diluted 1:100 (w:v) in 50 mM TRIS buffer (pH 7.4) to have a final protein concentration of about 200 μg/mL.
# Displacement experiments were performed by incubating the homogenate (980 μL) in the presence of [^3 H]-Ketanserine (0.5-1.0 nM) (10 μL) and of different concentrations of the test compounds dissolved in the assay buffer (10 μL), at 37° C. for 10 min (final volume: 1 mL).
# Non specific binding was determined in the presence of 100 μM Methysergide (10 μL). The separation of [^3 ]-Ketanserine free from that bound to the receptor was carried by the filtration technique (GF/B filters, Whatman). The radioactivity present was counted by liquid scintillation spectrometry.
# as §2, with “by” for “by a”, “model. These” for “model. The”, “Ki=IC50 /(1+[C]/KD), where” for “Ki=IC50 /(1+[C]/KD),where”, “([^3 H]-Ketanserine).” for “([^3 H]-8-OH-DPAT).”
Structure (SMILES),Ki (5-HT1A receptors) [nM],Ki (5-HT2 receptors) [nM]
"COc1ccc2[nH]cc(CC3=CCCN(C)C3)c2c1 [Compound 1, 5-methoxy-3-(N-methyl-1,2,5,6-tetrahydro-pyridin-3-yl-methyl)-1H-indole]",35,–
"COc1ccc2[nH]cc(CC3=CCCN(CCOc4ccc(F)cc4)C3)c2c1 [Compound 2, 5-methoxy-3-[N-(4'-fluoro-phenoxy-ethyl)-1,2,5,6-tetrahydro-pyridin-3-yl-methyl]-1H-indole]",10,50
"COc1ccc2[nH]cc(CC3=CCCN(CCCC(=O)c4ccc(F)cc4)C3)c2c1 [Compound 9, 5-methoxy-3-[N-(4-(4-fluoro-phenyl)-4-oxo-butyl)-1,2,5,6-tetrahydro-pyridin-3-ylmethyl]-1H-indole]",30,15
"COc1ccc2[nH]cc(CC3=CCCN(CCC(=O)c4ccc(F)cc4)C3)c2c1 [Compound 11, 5-methoxy-3-[N-(3-(4-fluoro-phenyl)-3-oxo-propyl)-1,2,5,6-tetrahydro-pyridin-3-ylmethyl]-1H-indole]",30,20
"COc1ccc2[nH]cc(CC3=CCCN(CCc4ccc(N)cc4)C3)c2c1 [Compound 13, 5-methoxy-3-[N-(2-(4-amino-phenyl)-ethyl)-1,2,5,6-tetrahydro-pyridin-3-ylmethyl]-1H-indole]",100,50
"COc1ccc2[nH]cc(CC3=CCCN(CCCCc4ccc(F)cc4)C3)c2c1 [Compound 14, 5-methoxy-3-[N-(4-(4-fluoro-phenyl)-butyl)-1,2,5,6-tetrahydro-pyridin-3-ylmethyl]-1H-indole]",80,100
"COc1ccc2[nH]cc(CC3=CCCN(CCCc4ccc(F)cc4)C3)c2c1 [Compound 15, 5-methoxy-3-[N-(3-(4-fluoro-phenyl)-propyl)-1,2,5,6-tetrahydro-pyridin-3-ylmethyl]-1H-indole]",10,10
COc1ccc2[nH]cc(CC3=CCCN(CCNC(=O)c4ccc(F)cc4)C3)c2c1 [Compound 16],1,–
"COc1ccc2[nH]cc(CC3=CCCN(CCNC(=O)c4cccs4)C3)c2c1 [Compound 17, 5-methoxy-3-[N-(2-(2-thiophene-carboxamide)-ethyl)-1,2,5,6-tetrahydro-pyridin-3-ylmethyl]-1H-indole]",1,–
"COc1ccc2[nH]cc(CC3=CCCN(CCCC(=O)c4cccs4)C3)c2c1 [Compound 32, 5-methoxy-3-[N-(4-(2-thienyl)-4-oxo-butyl)-1,2,5,6-tetrahydro-pyridin-3-ylmethyl]-1H-indole]",30,10
